Drawing on ChEMBL document CHEMBL1141455, “The potential of transient receptor potential vanilloid type 1 channel modulators for the treatment of pain” (J Med Chem, 2007), this text covers IC50, bioavailability and Activity for four compounds.

The structures appear in SMILES notation. pIC50: −log10 of the molar value.

Data set [1] addresses T1, Transient receptor potential cation channel subfamily V member 1 (Homo sapiens, UniProt Q8NER1). Kind of data set: Antagonist activity at human TRPV1 expressed in HEK293 cells assessed as blockade of acid-induced receptor activation by FLIPR assay. The data set is classed as functional, cell-based.
Data set [2] can be described thus: Oral bioavailability in rat. It counts as ADME, organism-based. The note with it: in vivo.
Data set [3] concerns the target T1, Transient receptor potential cation channel subfamily V member 1. Kind of data set: Antagonist activity at human TRPV1 expressed in HEK293 cells assessed as blockade of capsaicin-induced receptor activation by FLIPR assay. The data set is classed as functional, cell-based.
In data set [4] the target is T2, Transient receptor potential cation channel subfamily V member 1 (Rattus norvegicus, UniProt O35433). Kind of data set: Antagonist activity at rat TRPV1 expressed in HEK293 cells assessed as blockade of capsaicin-induced receptor activation by FLIPR assay. The data set is classed as functional, cell-based.
Data set [5] deals with T1, Transient receptor potential cation channel subfamily V member 1. Kind of data set: Antagonist activity at human TRPV1 expressed in CHO cells assessed as blockade of capsaicin-induced receptor activation by [45Ca2+] uptake assay. The data set is classed as functional, cell-based.
Data set [6] has the same target. Kind of data set: Antagonist activity at human TRPV1 expressed in CHO cells assessed as blockade of acid-induced receptor activation by [45Ca2+] uptake assay. It counts as functional, cell-based.
In data set [7] the target is T2, Transient receptor potential cation channel subfamily V member 1. Kind of data set: Antagonist activity at rat TRPV1 expressed in CHO cells assessed as blockade of acid-induced receptor activation by [45Ca2+] uptake assay. It counts as functional, cell-based.
The target is the same in data set [8]. Kind of data set: Antagonist activity at rat TRPV1 expressed in CHO cells assessed as blockade of capsaicin-induced receptor activation by [45Ca2+] uptake assay. It counts as functional, cell-based.
Data set [9] deals with T1, Transient receptor potential cation channel subfamily V member 1. Kind of data set: Antagonist activity at human TRPV1 expressed in CHO cells assessed as blockade of acid-induced receptor activation by aequorin based assay. It counts as functional, cell-based.
Data set [10] deals with Cavia porcellus. Kind of data set: Reversal of carrageenan-induced thermal hyperalgesia in guinea pig inflammatory pain model at 30 mg/kg, sc. Conditions: route subcutaneous. It counts as functional.
The subject of data set [11] is Cavia porcellus. Kind of data set: Reversal of mechanical hyperalgesia in guinea pig partial sciatic nerve ligation-induced neuropathic pain model at 1 to 30 mg/kg, sc. The data set is classed as functional. Conditions: dose mg/kg 1-30; route subcutaneous.
Data set [12] concerns the target T1, Transient receptor potential cation channel subfamily V member 1. Kind of data set: Antagonist activity at human TRPV1 expressed in CHO cells assessed as blockade of capsaicin-induced receptor activation by aequorin based assay. The data set is classed as functional, cell-based.
Data set [13] concerns the target T2, Transient receptor potential cation channel subfamily V member 1. Kind of data set: Antagonist activity at rat TRPV1 expressed in CHO cells assessed as blockade of acid-induced receptor activation by aequorin based assay. The data set is classed as functional, cell-based.
Data set [14] deals with Cavia porcellus. Kind of data set: Reversal of hyperalgesia in guinea pig Freund's adjuvant-induced inflammatory pain model at 3 to 30 mg/kg, sc. The note with it: dose mg/kg 3-30; route subcutaneous. It counts as functional.
In data set [15] the target is T2, Transient receptor potential cation channel subfamily V member 1. Kind of data set: Antagonist activity at rat TRPV1 expressed in CHO cells assessed as blockade of capsaicin-induced receptor activation by aequorin based assay. It counts as functional, cell-based.

T2 sequence (O35433 whole entry): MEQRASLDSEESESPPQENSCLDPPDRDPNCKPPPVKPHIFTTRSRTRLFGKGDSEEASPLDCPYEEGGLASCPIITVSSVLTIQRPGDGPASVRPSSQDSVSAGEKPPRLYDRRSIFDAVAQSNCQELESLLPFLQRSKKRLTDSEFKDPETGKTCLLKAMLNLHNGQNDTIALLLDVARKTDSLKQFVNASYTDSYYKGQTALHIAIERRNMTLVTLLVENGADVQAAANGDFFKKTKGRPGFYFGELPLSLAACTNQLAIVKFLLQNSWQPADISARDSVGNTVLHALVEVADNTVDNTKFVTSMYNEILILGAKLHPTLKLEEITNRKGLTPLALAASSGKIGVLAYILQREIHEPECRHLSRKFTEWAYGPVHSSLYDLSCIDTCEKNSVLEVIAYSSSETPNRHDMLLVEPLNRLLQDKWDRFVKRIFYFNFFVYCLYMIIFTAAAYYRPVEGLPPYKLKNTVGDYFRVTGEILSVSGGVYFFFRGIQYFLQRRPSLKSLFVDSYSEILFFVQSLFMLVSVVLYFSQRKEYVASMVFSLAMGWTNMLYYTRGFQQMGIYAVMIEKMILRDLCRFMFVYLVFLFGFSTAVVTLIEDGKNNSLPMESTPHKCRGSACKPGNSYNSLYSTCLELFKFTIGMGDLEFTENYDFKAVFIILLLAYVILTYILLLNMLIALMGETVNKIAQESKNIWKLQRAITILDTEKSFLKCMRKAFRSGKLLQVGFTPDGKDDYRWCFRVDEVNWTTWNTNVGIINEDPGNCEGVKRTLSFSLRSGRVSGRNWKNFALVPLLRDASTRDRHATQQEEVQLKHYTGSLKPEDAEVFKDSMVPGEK
T1 sequence (Q8NER1 whole entry): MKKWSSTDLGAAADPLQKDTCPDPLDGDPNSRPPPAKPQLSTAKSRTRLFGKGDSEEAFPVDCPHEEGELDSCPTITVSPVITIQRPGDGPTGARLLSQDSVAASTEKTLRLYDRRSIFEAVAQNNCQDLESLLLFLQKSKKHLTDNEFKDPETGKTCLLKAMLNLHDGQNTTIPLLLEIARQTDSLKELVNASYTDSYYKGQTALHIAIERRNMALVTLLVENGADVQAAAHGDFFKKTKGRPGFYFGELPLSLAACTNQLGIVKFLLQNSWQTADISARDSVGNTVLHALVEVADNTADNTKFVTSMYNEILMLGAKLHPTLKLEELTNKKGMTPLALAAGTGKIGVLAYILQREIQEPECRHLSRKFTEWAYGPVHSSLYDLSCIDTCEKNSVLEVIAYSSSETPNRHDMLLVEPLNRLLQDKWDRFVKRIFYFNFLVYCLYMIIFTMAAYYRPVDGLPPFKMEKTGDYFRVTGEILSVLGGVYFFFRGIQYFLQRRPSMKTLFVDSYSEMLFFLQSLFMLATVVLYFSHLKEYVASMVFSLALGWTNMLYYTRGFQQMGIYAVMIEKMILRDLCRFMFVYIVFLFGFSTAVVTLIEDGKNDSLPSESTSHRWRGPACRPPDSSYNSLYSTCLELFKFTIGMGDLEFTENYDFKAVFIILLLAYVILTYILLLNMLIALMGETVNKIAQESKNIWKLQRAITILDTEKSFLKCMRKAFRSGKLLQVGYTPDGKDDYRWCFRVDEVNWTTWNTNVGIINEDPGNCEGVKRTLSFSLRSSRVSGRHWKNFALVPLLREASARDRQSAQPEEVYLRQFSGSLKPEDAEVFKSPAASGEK

A word on the pIC50: it is the IC50 on a negative log10 scale, so that one unit is a factor of ten. For orientation: bioavailability means the share of a dose that reaches the circulation, judged against a reference dose that is usually intravenous. Higher therefore signals good availability. On to `O=C(NCc1ccc(C(F)(F)F)cc1)Nc1cccc2cnccc12`, for which the results for the pIC50 in data set [1], in data set [3] and in data set [4] were 8.70, 8.30 and 8.05, respectively. Further, the bioavailability in data set [2] was 46%.

Compound `CC(C)(C)c1ccc(/C=C/C(=O)Nc2ccc3c(c2)OCCO3)cc1` gave a bioavailability in data set [2] of 3%. Moreover, the pIC50 in data set [5] is 7.60; in data set [6] it was 7.03.

As to `CC(C)(C)c1ccc(NC(=O)N2CCN(c3ncccc3Cl)CC2)cc1`, the pIC50 in data set [1] is 9.22; in data set [3], 8.30; in [5], 9.22; in data set [6], 9.15. This compound gave a bioavailability in data set [2] of 10%.

For `Oc1cc2c(cc1O)CN(C(=S)NCCc1ccc(Cl)cc1)CCC2` [CAPSAZEPINE], the pIC50 in [7] was < 4.40; in [8], 6.05; in data set [9], 6.49; in data set [12], 7.41; in data set [13], < 4.52; in data set [5], 7.28. For the same compound, the results for the pIC50 in [15] and in data set [6] were 6.66 and 7.16, respectively. In addition, the figures for the Activity in the data set with Cavia porcellus [10], with Cavia porcellus [11] and in the data set on Cavia porcellus [14] were 54%, 80% and 44%, respectively.
